Patent publication US4495188A, “Acylaminoquinazoline derivatives and a pharmaceutical composition containing them” (Sankyo Company Limited, priority 1980, dated 1985)
Counter-ions that a name gives are not always drawn. Like-named read-outs stand apart in the source and are kept apart here.

What was measured:
[1] = target: T1, angiotension I-converting enzyme (ACE) (Oryctolagus cuniculus, UniProt P12822); experiment: Measurement of inhibitory activity against the angiotension I-converting enzyme (ACE), hippuryl-l-histidyl-l-leucine as substrate; type: biochemical, rabbit
T1 construct: The ACE solution was prepared by homogenizing 5 g of acetone powders of rabbit lungs; tissue Sigma Chemical Co; host or cells: rabbit lung (acetone powder, borate buffer extract, 40,000 G supernatant)
T1 sequence (P12822 34-1310): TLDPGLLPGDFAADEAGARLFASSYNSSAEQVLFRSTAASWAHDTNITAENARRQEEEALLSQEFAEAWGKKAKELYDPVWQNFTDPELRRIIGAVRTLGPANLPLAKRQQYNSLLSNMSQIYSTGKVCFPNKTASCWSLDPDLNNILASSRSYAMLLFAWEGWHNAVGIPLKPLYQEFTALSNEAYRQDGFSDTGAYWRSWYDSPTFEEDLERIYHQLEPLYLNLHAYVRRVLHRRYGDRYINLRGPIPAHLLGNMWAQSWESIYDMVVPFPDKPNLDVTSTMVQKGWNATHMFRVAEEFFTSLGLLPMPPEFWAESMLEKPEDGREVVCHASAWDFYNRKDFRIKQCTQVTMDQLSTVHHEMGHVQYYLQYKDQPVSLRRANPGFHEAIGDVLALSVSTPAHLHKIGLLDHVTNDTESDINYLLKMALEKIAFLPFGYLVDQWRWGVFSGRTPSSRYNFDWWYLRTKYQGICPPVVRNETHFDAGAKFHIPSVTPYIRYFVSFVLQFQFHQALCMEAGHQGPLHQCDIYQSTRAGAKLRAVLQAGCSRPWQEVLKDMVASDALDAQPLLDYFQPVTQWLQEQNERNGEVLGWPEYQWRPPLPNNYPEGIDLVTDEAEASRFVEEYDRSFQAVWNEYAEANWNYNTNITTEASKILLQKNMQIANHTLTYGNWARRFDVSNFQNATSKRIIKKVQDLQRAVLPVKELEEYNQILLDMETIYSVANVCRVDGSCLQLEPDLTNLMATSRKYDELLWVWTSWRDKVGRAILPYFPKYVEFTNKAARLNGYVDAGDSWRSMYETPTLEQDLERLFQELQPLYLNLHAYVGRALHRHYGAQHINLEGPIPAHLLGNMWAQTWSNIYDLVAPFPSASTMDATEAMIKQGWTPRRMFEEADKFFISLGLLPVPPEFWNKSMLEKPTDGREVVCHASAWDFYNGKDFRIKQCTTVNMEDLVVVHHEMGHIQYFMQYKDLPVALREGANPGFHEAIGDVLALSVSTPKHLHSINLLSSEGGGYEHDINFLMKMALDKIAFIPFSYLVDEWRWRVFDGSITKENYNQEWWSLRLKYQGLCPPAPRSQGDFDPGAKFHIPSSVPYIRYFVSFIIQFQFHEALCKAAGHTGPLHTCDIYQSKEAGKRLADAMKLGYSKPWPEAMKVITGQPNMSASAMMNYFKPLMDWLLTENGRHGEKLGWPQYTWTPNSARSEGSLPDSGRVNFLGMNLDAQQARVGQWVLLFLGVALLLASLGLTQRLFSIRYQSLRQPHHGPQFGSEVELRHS
Experimental: The inhibitory activities of compounds of the invention and of the known compound, prazosin, against the angiotension I-converting enzyme (ACE) were measured by the method of D. W. Cushman and H. S. Cheung [Biochem. Pharmacol. 20, 637 (1971)], using hippuryl-l-histidyl-l-leucine as a substrate. The reaction mixture consisted of 225 μl of a 0.1 M borate buffer solution (pH 8.3) containing 0.4 M sodium chloride, 25 μl of the substrate (12.5 mM solution), 25 μl of a partially purified ACE and 25 μl of a test compound solution (prepared from a 1 mg/ml aqueous acetone solution of the compound). This reaction mixture was maintained at 37° C. for 30 minutes, after which 300 μl of 1N hydrochloric acid were added in order to stop the reaction. 2 ml of ehtyl acetate were then added and the mixture was stirred for 10 seconds and then centrifuged at 3,000 rpm for 5 minutes. 1.5 ml of the ethyl acetate layer was separated and concentrated by evaporation to dryness. The residue was dissolved in 1 ml of distilled water and the quantity of hippuric acid in this solution was measured from its absorbance at 228 mμ, using a spectrophotometer.
The ACE solution was prepared by homogenizing 5 g of acetone powders of rabbit lungs (a product of Sigma Chemical Co., U.S.A., prepared by homogenizing rabbit lungs in a buffer solution and separating out the enzymes precipitated with acetone) in 50 ml of a borate buffer solution (pH 8.3), centrifuging the mixture at 40,000 G for 30 minutes and then separating the supernatant.
The inhibitory activity against ACE was calculated from the formula: [formula] in which Ac is the absorbance of the control and As is the absorbance of the sample. Inhibition curves were made for each sample by measuring the inhibitory activity at five different concentrations, prepared by two-fold dilutions. The IC50 values, which are the molar concentrations of the compounds required to inhibit the ACE activity by 50%, were calculated for each compound.

[2] = tested on: angiotensin I-converting enzyme; details: reported by Cushman et al.; cited from earlier work
hypertensive animals = details: reported by Cushman et al.; cited from earlier work
[3] = pH 8.3, 37° C., 30 minutes, partially purified ACE from rabbit lungs, read-out: Inhibitory concentration IC50

Row | SMILES | IC50 [1, 3] [nM] | also measured
1 | CCOC(=O)N1CCN(c2nc(NC(=O)C3CSCN3C(=O)C(C)CSC(C)=O)c3cc(OC)c(OC)cc3n2)CC1 (racemic) [Example 6, 4-[3-(DL-3-Acetylthio-2-methylpropanoyl)thiazolidine-4-carbonyl]amino-2-(4-ethoxycarbonyl-1-piperazinyl)-6,7-dimethoxyquinazoline hydrochloride hemihydrate] | 1410 | –
2 | C[C@H](CS)C(=O)N1CCC[C@H]1C(=O)O [1-(D-3-mercapto-2-methylpropanoyl)-L-proline] | – | inhibitory activity against the angiotensin I-converting enzyme [2]: potent inhibitory activity; antihypertensive activity (hypertensive animals): exhibits antihypertensive activity
3 | CCOC(=O)N1CCN(c2nc(NC(=O)[C@@H]3CCCN3C(=O)[C@H](C)CSC(C)=O)c3cc(OC)c(OC)cc3n2)CC1 [Example 1, 4[1-(D-3-Acetylthio-2-methylpropanoyl)-L-prolyl]amino-2-(4-ethoxycarbonyl-1-piperazinyl)-6,7-dimethoxy-quinazoline hydrochloride hemihydrate] | 416 | –
4 | C/C=C/C(=O)N1CCN(c2nc(NC(=O)[C@@H]3CCCN3C(=O)[C@H](C)CSC(C)=O)c3cc(OC)c(OC)cc3n2)CC1 [Example 2, 4[1-(D-3-Acetylthio-2-methylpropanoyl)-L-prolyl]amino-2-(4-crotonoyl-1-piperazinyl)-6,7-dimethoxyquinazoline. hydrochloride hydrate] | 360 | –
5 | COc1cc2nc(N3CCN(C(=O)C(C)Oc4ccccc4)CC3)nc(NC(=O)[C@@H]3CCCN3C(=O)[C@H](C)CSC(C)=O)c2cc1OC (stereo partly drawn) [Example 3, 4-[1-(D-3-Acetylthio-2-methylpropanoyl)-L-prolyl]amino-6,7-dimethoxy-2[4-(2-phenoxypropionyl)-1-piperazinyl]quinazoline hydrochloride hydrate] | 341 | –
6 | COc1cc2nc(N3CCN(C(=O)c4ccc(OCc5ccccc5)cc4)CC3)nc(NC(=O)[C@@H]3CCCN3C(=O)[C@H](C)CSC(C)=O)c2cc1OC [Example 4, 4-[1-(D-3-Acetylthio-2-methylpropanoyl)-L-prolyl]amino-2-[4-(4-benzyloxybenzoyl)-1-piperazinyl]-6,7-dimethoxy-quinazcline hydrochloride sesquihydrate] | 445 | –
7 | COc1ccc(C(=O)N2CCN(c3nc(NC(=O)[C@@H]4CCCN4C(=O)[C@H](C)CSC(C)=O)c4cc(OC)c(OC)cc4n3)CC2)cc1OC [Example 5, 4-[1-(D-3-Acetylthio-2-methylpropanoyl)-L-prolyl]amino-2-(4-(3,4-dimethoxybenzoyl)-1-piperazinyl]-6,7-dimethoxy-quinazoline hydrochloride sesquihydrate] | 261 | –
8 | COc1cc2nc(N3CCN(C(=O)c4ccco4)CC3)nc(NC(=O)[C@@H]3CCCN3C(=O)[C@H](C)CSC(C)=O)c2cc1OC [Example 7, 4-[1-(D-3-Acetylthio-2-methylpropanoyl)-L-prolyl]amino-2-[4-(2-furoyl)-1-piperazinyl]-6,7-dimethoxyquinazoline.hydrochloride.hydrate] | 310 | –
9 | COc1cc2nc(N3CCN(C(=O)c4ccco4)CC3)nc(N)c2cc1OC [prazosin, reference compound] | – | IC50 [1]: ≥ 10000 nM
